# Measured values taken from patent publication US9945862B2, “Biomarkers for predicting and assessing responsiveness of thyroid and kidney cancer subjects to lenvatinib compounds” (Eisai R&D Management Co., Ltd., priority 2011, dated 2018).
# Tests used:
# [1] = system: differentiated thyroid cancer patients; assay: Best overall response / tumor response in differentiated thyroid cancer patients treated in phase II with E7080, by tumor mutation status; format: in vivo, human
# Excerpt: This experiment was directed at identifying amino acid mutations that are useful in predicting whether subjects respond to treatment with E7080 using three criteria of response: best overall response, tumor shrinkage, and progression free survival.
# Tissue samples were obtained at surgery before the patients had received any therapy comprising E7080 and were routinely processed with formalin fixed, paraffin embedded tissues (FFPE). The protocol that was used was approved by the institutional review board, and informed consent was obtained from each subject. Tumor tissue samples from 27 patients, for which tissues were available, were used for mutation analysis. DNA was isolated from FFPE tumor blocks collected from patients participating in the trial. Genomic DNA was extracted from two to five 10 micron unstained sections by deparaffinization and Qiagen DNA Mini Kit Tissue Protocol with minor modification. For mutation detection, the SEQUENOM® (San Diego, Calif.) platform and the OncoCarta™ Panel v1.0 and OncoCarta™ Panel v3.0 were used (see, www.sequenom.com/Files/Genetic-Analysis—Graphics/All-Application—PDFs/AssayExplorer2010_1110-Web/). Sequenom's OncoCarta™ Panels are a set of pre-designed and pre-validated assays for efficient mutation screening. The OncoCarta™ Panel v1.0 genes and the number of mutations (in parentheses) are: ABL1 (14); AKT1 (7); AKT2 (2); BRAF (25); CDK4 (2); EGFR (40); ERBB2 (9); FGFR1 (2); FGRF3 (7); FLT3 (3); HRAS (10); JAK2 (1); KIT (32); KRAS (16); MET (5); NRAS (19); PDGFRA (11); PIK3CA (14); and RET (6). The OncoCarta™ Panel v3.0 genes and the number of mutations (in parentheses) are: ABL1 (2) AKT1 (1); APC (12); BRAF (19); CDKN2A (7); CSF1R (6); CTTNB1 (28); EGFR (32); ERBB2 (2); FLT3 (3); HRAS (2); JAK3 (3); KIT (3); KRAS (5); MET (6); MLH1 (1); MYC (6); PDGFRA (11); PIK3CA (4); PTEN (14); RB1 (11); RET (13); SRC (1); STK11 (12); P53 (7); and VH1 (7). […]
# DNA was amplified using the OncoCarta™ PCR primer pools, unincorporated nucleotides were inactivated by shrimp alkaline phosphatase (SAP), and a single base extension reaction was performed using extension primers that hybridize immediately adjacent to the mutations and a custom mixture of nucleotides. Salts were removed by the addition of a cation exchange resin. Multiplexed reactions were spotted onto the SpectroChipII, and mutations, if present, were resolved by MALDI-TOF on the Compact Mass Spectrometer (Sequenom®, San Diego, Calif.). The OncoCarta™ Panel v1.0 (Sequenom®, San Diego, Calif.) consists of 24 pools of primer pairs and 24 pools of extension primers, and has the capacity to detect 225 mutations in 19 genes. The OncoCarta™ Panel v 3.0 consists of 24 pools of primer pairs and 24 pools of extension primers, and has the capacity to detect 218 mutations in 26 genes. Each pool consists of 5-9 primer pairs in the PCR reaction. Two types of assays have been designed in the OncoCarta panel, referred to as simple and complex. The simple assays are those in which a single assay is able to detect the amino acid changes at that codon. The complex assays are those that require more than one assay to identify codon changes or deletions and insertion, and thus are able to detect multiple different amino acid substitutions or deletions. An example of a complex assay involves the use of the KRAS_1 and KRAS_2 assays, which interrogates 2 different nucleotide positions within codon 12 and together identify all codon 12 amino acid changes. In the KRAS G12R mutation, the mutant allele has the codon CGT (Arginine) in contrast to the wild type allele which has the GGT (Glycine) codon. […]
# thyroglobulin = assay: Serum thyroglobulin, chemiluminescent immunometric assay (IMMULITE 2000), pre- and post-treatment with E7080; format: in vivo, human; settings: 48 days (within 2 cycles) after treatment; decrease continued to cycle 8
# [2] = BRAF.KRAS.NRAS (any of gene) MU
# [3] = BRAF.KRAS.NRAS (any of gene) WT
# [4] = BRAF.KRAS.NRAS.VHL (any of gene) MU
# [5] = BRAF.KRAS.NRAS.VHL (any of gene) WT
compound,measurement,setting,value
"COc1cc2nccc(Oc3ccc(NC(=O)NC4CC4)c(Cl)c3)c2cc1C(N)=O [E7080, 4-(3-chloro-4-(cyclopropylaminocarbonyl)aminophenoxy)-7-methoxy-6-quinolinecarboxamide]",Number of patients with BOR PD,[1]; [2],0
same,Number of patients with BOR PR,[1]; [2],10
same,Number of patients with BOR SD,[1]; [2],1
same,Number of patients with BOR PD,[1]; [3],2
same,Number of patients with BOR PR,[1]; [3],3
same,Number of patients with BOR SD,[1]; [3],6
same,Number of patients with BOR PD,[1]; [4],1
same,Number of patients with BOR PR,[1]; [4],10
same,Number of patients with BOR SD,[1]; [4],1
same,Number of patients with BOR PD,[1]; [5],1
same,Number of patients with BOR PR,[1]; [5],3
same,Number of patients with BOR SD,[1]; [5],6
same,Number of patients with BOR PD,[1]; BRAF.KRAS.VHL (any of gene) MU,2
same,Number of patients with BOR PR,[1]; BRAF.KRAS.VHL (any of gene) MU,8
same,Number of patients with BOR SD,[1]; BRAF.KRAS.VHL (any of gene) MU,0
same,Number of patients with BOR PD,[1]; BRAF.KRAS.VHL (any of gene) WT,0
same,Number of patients with BOR PR,[1]; BRAF.KRAS.VHL (any of gene) WT,8
same,Number of patients with BOR SD,[1]; BRAF.KRAS.VHL (any of gene) WT,5
same,Number of patients with BOR PD,[1]; BRAF.NRAS (any of gene) MU,0
same,Number of patients with BOR PR,[1]; BRAF.NRAS (any of gene) MU,8
same,Number of patients with BOR SD,[1]; BRAF.NRAS (any of gene) MU,1
same,Number of patients with BOR PD,[1]; BRAF.NRAS (any of gene) WT,2
same,Number of patients with BOR PR,[1]; BRAF.NRAS (any of gene) WT,5
same,Number of patients with BOR SD,[1]; BRAF.NRAS (any of gene) WT,6
same,Number of patients with BOR PD,[1]; BRAF.VHL (any of gene) MU,2
same,Number of patients with BOR PR,[1]; BRAF.VHL (any of gene) MU,6
same,Number of patients with BOR SD,[1]; BRAF.VHL (any of gene) MU,0
same,Number of patients with BOR PD,[1]; BRAF.VHL (any of gene) WT,0
same,Number of patients with BOR PR,[1]; BRAF.VHL (any of gene) WT,10
same,Number of patients with BOR SD,[1]; BRAF.VHL (any of gene) WT,5
same,Number of patients with BOR PD,[1]; KRAS.NRAS (any of gene) MU,0
same,Number of patients with BOR PR,[1]; KRAS.NRAS (any of gene) MU,8
same,Number of patients with BOR SD,[1]; KRAS.NRAS (any of gene) MU,0
same,Number of patients with BOR PD,[1]; KRAS.NRAS (any of gene) WT,2
same,Number of patients with BOR PR,[1]; KRAS.NRAS (any of gene) WT,5
same,Number of patients with BOR SD,[1]; KRAS.NRAS (any of gene) WT,7
same,Number of patients with BOR PD,[1]; KRAS.NRAS.VHL (any of gene) MU,1
same,Number of patients with BOR PR,[1]; KRAS.NRAS.VHL (any of gene) MU,8
same,Number of patients with BOR SD,[1]; KRAS.NRAS.VHL (any of gene) MU,0
same,Number of patients with BOR PD,[1]; KRAS.NRAS.VHL (any of gene) WT,1
same,Number of patients with BOR PR,[1]; KRAS.NRAS.VHL (any of gene) WT,5
same,Number of patients with BOR SD,[1]; KRAS.NRAS.VHL (any of gene) WT,7
same,Patients with partial response (PR),[1]; patients with either an NRAS or KRAS mutation,8 out of 8
same,Patients with partial response (PR),[1]; patients without mutations in NRAS and KRAS,5 out of 14
same,Clinical outcome in differentiated thyroid cancer patients,[1]; phase II,Tumor response and prolonged disease stabilization were observed
same,Change in serum thyroglobulin levels after treatment,thyroglobulin,significantly decreased
